The supplement of paper PMC10307832

Columns and labels:
Assay in all cases: relative viability (nuclei count vs DMSO), 5 days (fraction); higher = more cells survive
Tosedostat + AZD7762 = compound: CC(C)C[C@@H](C(=O)N[C@H](C(=O)OC1CCCC1)c1ccccc1)[C@H](O)C(=O)NO [Tosedostat] + NC(=O)Nc1cc(-c2cccc(F)c2)sc1C(=O)N[C@H]1CCCNC1 [AZD7762] (partner 0.2 µM)
Method in brief: (§1)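 For relative viability, nuclei counts in treated wells were divided by those in vehicle wells. Lung cancer cell lines had been pin-tool dosed in 1536-well plates the day after seeding and cultured for 5 days, then fixed and stained in one step (final 0.05% Triton X-100, 1% formaldehyde, 1 ug/ml Hoechst) and imaged at 4×. Doses were one drug alone or a fixed anchor-drug dose plus five library-drug doses (not always all listed) in √10 steps, and values are duplicate-plate medians.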

Tosedostat + Palbociclib = compound: CC(C)C[C@@H](C(=O)N[C@H](C(=O)OC1CCCC1)c1ccccc1)[C@H](O)C(=O)NO [Tosedostat] + CC(=O)c1c(C)c2cnc(Nc3ccc(N4CCNCC4)cn3)nc2n(C2CCCC2)c1=O [Palbociclib] (partner 0.5 µM)
Method in brief: as §1

Tosedostat + Luminespib = compound: CC(C)C[C@@H](C(=O)N[C@H](C(=O)OC1CCCC1)c1ccccc1)[C@H](O)C(=O)NO [Tosedostat] + CCNC(=O)c1noc(-c2cc(C(C)C)c(O)cc2O)c1-c1ccc(CN2CCOCC2)cc1 [Luminespib] (partner 0.01 µM)
Method in brief: as §1

[1] = compound: CC1=NN=C(O1)C2=NN=C(C=C2)N3CCC(CC3)OC4=C(C=CC(=C4)F)Cl + CC(=O)c1c(C)c2cnc(Nc3ccc(N4CCNCC4)cn3)nc2n(C2CCCC2)c1=O [Palbociclib] (partner 0.5 µM)
Method in brief: as §1

Cell Line	relative viability (Tosedostat + AZD7762; first compound 0.02 µM)	relative viability (Tosedostat + AZD7762; first compound 0.06325 µM)	relative viability (Tosedostat + AZD7762; first compound 0.2 µM)	relative viability (Tosedostat + AZD7762; first compound 0.6325 µM)	relative viability (Tosedostat + AZD7762; first compound 2 µM)	relative viability (Tosedostat + Palbociclib; first compound 0.02 µM)	relative viability (Tosedostat + Palbociclib; first compound 0.06325 µM)	relative viability (Tosedostat + Palbociclib; first compound 0.2 µM)	relative viability (Tosedostat + Palbociclib; first compound 0.6325 µM)	relative viability (Tosedostat + Palbociclib; first compound 2 µM)	relative viability (Tosedostat + Luminespib; first compound 0.02 µM)	relative viability (Tosedostat + Luminespib; first compound 0.06325 µM)	relative viability (Tosedostat + Luminespib; first compound 0.2 µM)	relative viability (Tosedostat + Luminespib; first compound 0.6325 µM)	relative viability (Tosedostat + Luminespib; first compound 2 µM)	relative viability ([1]; first compound 0.253 µM)	relative viability ([1]; first compound 0.8 µM)	relative viability ([1]; first compound 2.53 µM)	relative viability ([1]; first compound 8 µM)
NCI-H1734	0.614	0.535	0.504	0.411	0.466	0.367	0.372	0.354	0.313	0.265	0.183	0.197	0.194	0.229	0.232	0.344	0.334	0.345	0.324
HARA	0.41	0.459	0.261	0.477	0.262	0.325	0.255	0.262	0.232	0.265	0.683	0.554	0.766	0.481	0.779	0.233	0.25	0.235	0.222
NCI-H1395	0.429	0.42	0.414	0.398	0.38	0.63	0.661	0.596	0.709	0.596	0.635	0.774	0.664	0.663	0.559	0.562	0.592	0.599	0.626
NCI-H1355	0.698	0.703	0.72	0.606	0.621	0.351	0.399	0.384	0.403	0.374	0.699	0.782	0.779	0.688	0.648	0.25	0.359	0.353	0.353
LXF-289	1.17	1.08	1.19	1.05	1.08	0.653	0.608	0.612	0.665	0.625	0.703	0.599	0.687	0.732	0.64	0.524	0.549	0.531	0.458
NCI-H1666	0.878	0.919	1.02	0.912	0.907	0.589	0.696	0.61	0.601	0.657	1.02	1.01	0.969	0.994	1.11	0.632	0.684	0.651	0.627
HCC-15	1.25	1.17	1.29	1.31	1.15	0.759	0.688	0.572	0.708	0.653	0.408	0.269	0.78	0.211	0.308	0.427	0.392	0.414	0.418
EKVX	0.821	0.71	0.747	0.761	0.657	0.368	0.374	0.403	0.396	0.389	0.796	0.884	0.853	0.784	0.806	0.282	0.257	0.286	0.292
